Measurements published in PubChem BioAssay (NCI).
Converted amounts (≈) assume the structure as drawn.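 Exposure lasted 48 hours, with cells grown in 96-well plates and compounds tested at five concentrations. GI50 marks 50% less growth. TGI: total growth inhibition.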

Legend:
Assay in all cases: NCI anticancer screen, dose series, 48 h
[1] = tested on: NCI-H226 lung
[2] = tested on: NCI-H23 lung
[3] = tested on: NCI-H460 lung
[4] = tested on: NCI-H522 lung
[5] = tested on: NCI/ADR-RES ovarian
[6] = tested on: OVCAR-3 ovarian
[7] = tested on: OVCAR-4 ovarian
[8] = tested on: OVCAR-5 ovarian
[9] = tested on: OVCAR-8 ovarian
[10] = tested on: PC-3 prostate
[11] = tested on: RPMI-8226 leukemia
[12] = tested on: RXF 393 renal
[13] = tested on: SF-268 CNS
[14] = tested on: SF-295 CNS
[15] = tested on: SF-539 CNS
[16] = tested on: SK-MEL-2 melanoma
[17] = tested on: SK-MEL-28 melanoma
[18] = tested on: SK-MEL-5 melanoma
[19] = tested on: SK-OV-3 ovarian
[20] = tested on: SN12C renal
[21] = tested on: SNB-19 CNS
[22] = tested on: SNB-75 CNS
[23] = tested on: SR leukemia
[24] = tested on: SW-620 colon
[25] = tested on: T-47D breast
[26] = tested on: TK-10 renal
[27] = tested on: U251 CNS
[28] = tested on: UACC-257 melanoma
[29] = tested on: UACC-62 melanoma
[30] = tested on: UO-31 renal

Question: How did the TGI [1] turn out when `CCOC(=O)CC1(O)C=CC(=O)C=C1` was run?
Answer: The TGI was 13 µg/mL (≈ 66 µM).

Question: And the GI50 [2]?
Answer: The GI50 was 0.541 µg/mL (≈ 2.76 µM).

Question: And the TGI [2]?
Answer: The TGI was 1.75 µg/mL (≈ 8.91 µM).

Question: What about the GI50 [3] of the same compound?
Answer: The GI50 was 1.12 µg/mL (≈ 5.71 µM).

Question: What about the TGI [3] of the same compound?
Answer: Its TGI is 3.21 µg/mL (≈ 16.3 µM).

Question: And the GI50 [4]?
Answer: Its GI50 is 0.515 µg/mL (≈ 2.62 µM).

Question: What about the TGI [4] of the same compound?
Answer: Its TGI is 1.31 µg/mL (≈ 6.68 µM).

Question: What about the GI50 [5] of the same compound?
Answer: Its GI50 is 1.28 µg/mL (≈ 6.5 µM).

Question: What about the TGI [5] of the same compound?
Answer: Its TGI is 6.57 µg/mL (≈ 33.5 µM).

Question: What about the GI50 [6] of the same compound?
Answer: Its GI50 is 0.738 µg/mL (≈ 3.76 µM).

Question: What about the TGI [6] of the same compound?
Answer: The TGI was 2.16 µg/mL (≈ 11 µM).

Question: What about the GI50 [7] of the same compound?
Answer: Its GI50 is 2.21 µg/mL (≈ 11.3 µM).

Question: What about the TGI [7] of the same compound?
Answer: Its TGI is 4.44 µg/mL (≈ 22.6 µM).

Question: What about the GI50 [8] of the same compound?
Answer: The GI50 was 3.18 µg/mL (≈ 16.2 µM).

Question: And the TGI [8]?
Answer: The TGI was 5.42 µg/mL (≈ 27.6 µM).

Question: What about the GI50 [9] of the same compound?
Answer: The GI50 was 0.425 µg/mL (≈ 2.16 µM).

Question: What about the TGI [9] of the same compound?
Answer: Its TGI is 1.13 µg/mL (≈ 5.76 µM).

Question: And the GI50 [10]?
Answer: Its GI50 is 0.348 µg/mL (≈ 1.78 µM).

Question: What about the TGI [10] of the same compound?
Answer: Its TGI is 0.921 µg/mL (≈ 4.69 µM).

Question: What about the GI50 [11] of the same compound?
Answer: Its GI50 is 1.24 µg/mL (≈ 6.33 µM).

Question: What about the TGI [11] of the same compound?
Answer: Its TGI is 28.4 µg/mL (≈ 145 µM).

Question: What about the GI50 [12] of the same compound?
Answer: Its GI50 is 0.666 µg/mL (≈ 3.39 µM).

Question: And the TGI [12]?
Answer: Its TGI is 1.75 µg/mL (≈ 8.93 µM).

Question: What about the GI50 [13] of the same compound?
Answer: The GI50 was 0.57 µg/mL (≈ 2.9 µM).

Question: What about the TGI [13] of the same compound?
Answer: The TGI was 1.92 µg/mL (≈ 9.78 µM).

Question: What about the GI50 [14] of the same compound?
Answer: The GI50 was 2.55 µg/mL (≈ 13 µM).

Question: And the TGI [14]?
Answer: The TGI was 5.07 µg/mL (≈ 25.8 µM).

Question: And the GI50 [15]?
Answer: The GI50 was 0.581 µg/mL (≈ 2.96 µM).

Question: And the TGI [15]?
Answer: The TGI was 2.68 µg/mL (≈ 13.6 µM).

Question: What about the GI50 [16] of the same compound?
Answer: The GI50 was 2.33 µg/mL (≈ 11.9 µM).

Question: And the TGI [16]?
Answer: The TGI was 4.66 µg/mL (≈ 23.7 µM).

Question: What about the GI50 [17] of the same compound?
Answer: The GI50 was 1.04 µg/mL (≈ 5.3 µM).

Question: What about the TGI [17] of the same compound?
Answer: The TGI was 2.89 µg/mL (≈ 14.7 µM).

Question: And the GI50 [18]?
Answer: Its GI50 is 1.96 µg/mL (≈ 9.98 µM).

Question: And the TGI [18]?
Answer: Its TGI is 3.86 µg/mL (≈ 19.7 µM).

Question: What about the GI50 [19] of the same compound?
Answer: Its GI50 is 1.71 µg/mL (≈ 8.73 µM).

Question: And the TGI [19]?
Answer: Its TGI is 5.53 µg/mL (≈ 28.2 µM).

Question: What about the GI50 [20] of the same compound?
Answer: Its GI50 is 2.46 µg/mL (≈ 12.5 µM).

Question: What about the TGI [20] of the same compound?
Answer: The TGI was 4.6 µg/mL (≈ 23.5 µM).

Question: What about the GI50 [21] of the same compound?
Answer: The GI50 was 1.53 µg/mL (≈ 7.78 µM).

Question: And the TGI [21]?
Answer: Its TGI is 5.05 µg/mL (≈ 25.7 µM).

Question: And the GI50 [22]?
Answer: The GI50 was 1.95 µg/mL (≈ 9.94 µM).

Question: And the TGI [22]?
Answer: Its TGI is 4.38 µg/mL (≈ 22.3 µM).

Question: What about the GI50 [23] of the same compound?
Answer: Its GI50 is 0.348 µg/mL (≈ 1.77 µM).

Question: What about the TGI [23] of the same compound?
Answer: Its TGI is 1.18 µg/mL (≈ 6.03 µM).

Question: What about the GI50 [24] of the same compound?
Answer: The GI50 was 1.68 µg/mL (≈ 8.57 µM).

Question: And the TGI [24]?
Answer: The TGI was 4.39 µg/mL (≈ 22.4 µM).

Question: What about the GI50 [25] of the same compound?
Answer: Its GI50 is 0.667 µg/mL (≈ 3.4 µM).

Question: And the TGI [25]?
Answer: The TGI was 2.31 µg/mL (≈ 11.8 µM).

Question: What about the GI50 [26] of the same compound?
Answer: The GI50 was 2.12 µg/mL (≈ 10.8 µM).

Question: What about the TGI [26] of the same compound?
Answer: Its TGI is 6.04 µg/mL (≈ 30.8 µM).

Question: And the GI50 [27]?
Answer: Its GI50 is 0.477 µg/mL (≈ 2.43 µM).

Question: What about the TGI [27] of the same compound?
Answer: Its TGI is 1.45 µg/mL (≈ 7.38 µM).

Question: What about the GI50 [28] of the same compound?
Answer: Its GI50 is 0.883 µg/mL (≈ 4.5 µM).

Question: What about the TGI [28] of the same compound?
Answer: Its TGI is 2.09 µg/mL (≈ 10.7 µM).

Question: And the GI50 [29]?
Answer: Its GI50 is 0.485 µg/mL (≈ 2.47 µM).

Question: And the TGI [29]?
Answer: The TGI was 1.7 µg/mL (≈ 8.69 µM).

Question: What about the GI50 [30] of the same compound?
Answer: The GI50 was 2.41 µg/mL (≈ 12.3 µM).

Question: And the TGI [30]?
Answer: The TGI was 4.44 µg/mL (≈ 22.6 µM).
